Assay results reported in patent US20240000949A1, “Nucleic Acid-Derivatized Therapeutics” (The University of Chicago, priority 2020, published 2024).
{Alexa647} = Alexa Fluor 647 dye

B1: dsDNA: 38-mer double stranded DNA, SEQ ID NO: 40 and SEQ ID NO: 41, Alexa 647 labelled; targeting module without drug (nucleic acid)
chain 1: ATCAACACTGCACACCAGACAGCAAGATCCTATATATA
chain 2: TATATATAGGATCTTGCTGTCTGGTGTGCAGTGTTGAT
modifications: listed as DNA, chemistry not fully specified
notes: targeting module without drug

What was measured:
E0771 tumors = assay: E0771 tumor growth after i.v. delivery (incl. antibody depletion, anti-PD-L1 and CTX combinations); format: in vivo, mouse; settings: E64-DNA 25 μg i.v., CTX 50 mg/kg
Experimental: E64-DNA or DNA (25 μg) was intravenously delivered (i.v.; retro-orbital) into E0771 tumor-bearing mice. E0771 tumor growth over 5 days after a single injection is shown. n=8/group. Statistical significance was calculated via two-tailed Student's t-test (p<0.05 values are provided); error bars indicate the mean of independent experiments±s.e.m. ns, not significant. All measurements (n) are biological replicates.
Experimental design for depleting TAMs with α-CSF1R antibody (top). Effect of IgG or α-CSF1R (300 μg) on E0771 tumor growth (bottom, left) and CD8^+ effector T cells in tumors (bottom, right) in mice treated with E64-DNA (n=8/group) or DNA (n=6/group). E64-DNA or DNA (25 μg) was intravenously delivered (i.v.; retro-orbital) into E0771 tumor-bearing mice.
Effects of α-CD8, α-PD-L1, or IgG antibodies on E0771 tumor growth in mice treated with E64-DNA or DNA. […]
E64-DNA or DNA (25 μg) was intravenously delivered (i.v.; retro-orbital) into E0771 tumor-bearing mice. […] Statistical significance was calculated via two-tailed Student's t-test (p<0.05 values are provided); error bars indicate the mean of independent experiments±s.e.m. ns, not significant. […]

TAMs / OT-1 CD8+ T cells = assay: MHCI-restricted antigen cross-presentation by TAMs (OVA-OT-1 CD8+ T cell system); format: cell-based, mouse; settings: 100 nM, alone
Experimental: OT-1 CD8^+ T-cell activation (FIG. 53B) and proliferation (FIG. 53C) after 72h of co-culture with TAMs. n=3/group. Vehicle (Veh)=phosphate-buffered saline. Statistical significance was calculated via two-tailed Student's t-test (p<0.05 values are provided); error bars indicate the mean of independent experiments±s.e.m. ns; not significant. TAMs were isolated from E0771 tumors. All measurements (n) are biological replicates.
CD3/CD28 antibodies were included as a positive control for T cell activation. n=3/group. Statistical significance was calculated via two-tailed Student's t-test (p<0.05 values are provided); error bars indicate the mean of independent experiments±s.e.m. All measurements (n) are biological replicates. […]
T cell activation—CD8^+ or CD4^+ T cells were treated with BD GolgiPlug for the final 6 h of coculture with macrophages to allow intracellular IFNγ accumulation. […] The percent of IFNγ^+/CD44^+CD8^+ T cells was quantified by flow cytometry. In some cases, CD8^+ T cell IFNγ production in the culture medium at 72h was quantified using a mouse IFN-γ ELISA kit (Invitrogen).
T cell proliferation—Isolated CD4^+ or CD8^+ T cells were labeled with 5 μM 5,6-carboxyfluorescein diacetate succinimidyl ester (CF SE, Invitrogen) according to the manufacturer's instructions. The number of proliferating cells (CF SE-diluted) was quantified using CountBright™ beads (Invitrogen). […]

[1] = tested on: TAMs isolated from E0771 tumors; assay: DQ-OVA degradation by TAMs treated ex vivo; format: cell-based, mouse; settings: 100 nM, 2h ex vivo
Experimental: FIGS. 46A-46B. A lysosome-targeted DNA nanodevice (E64-DNA) promotes antigen cross-presentation by TAMs. FIG. 43A, Representative images (left) and Pearson correlation (right) of co-localization of TMR-Dextran labeled lysosomes (green) with E64-DNA (red). Pearson correlation with and without a 20-pixel shift (˜lysosome diameter) of the green signal. n=15 cells/group. scale bar=[…]. FIG. 43B, DQ-OVA degradation by TAMs treated with E64-DNA, DNA, or E64 (100 nM) for 2h. n=3/group. Statistical significance was calculated via two-tailed Student's t-test (p<0.05 values are provided); error bars indicate the mean of independent experiments±s.e.m. ns; not significant. TAMs were isolated from E0771 tumors. All measurements (n) are biological replicates.
Analysis of lysosomal degradation by DQ-OVA. Lysosomal degradative capacity of macrophages was assessed by a DQ-OVA degradation assay (D-12053, Invitrogen®) according to the manufacturer's instruction. Briefly, 0.2 million cells were incubated with 10 μg/mL of DQ-OVA at room temperature for 15 min, washed, and incubated at 37° C. for another 15 min. DQ-OVA fluorescence was quantified by flow cytometry.

tumor growth = settings: 1 mg, daily; cited from earlier work
[2] = tested on: Lactate dehydrogenase (LDH) in BMDMs; assay: LDH activity and lactate in BMDMs under hypoxia; format: cell-based, mouse; settings: hypoxic (1% 02), 24h, vs vehicle
Experimental: FIG. 82. […] Bone marrow-derived macrophages (BMDMs) were cultured under normoxic (n) or hypoxic (h, 1% 02) conditions for 24h in the presence of vehicle (veh), GNE, or GNE-DNA.
FIG. 83. […] Bone marrow-derived macrophages (BMDMs) were cultured under normoxic (n) or hypoxic (h, 1% 02) conditions for 24h in the presence of vehicle (veh), GNE, or GNE-DNA. Intracellular lactate levels in BMDMs are decreased by GNE or GNE-DNA under hypoxic conditions to levels compared to vehicle.
BMDMs were differentiated from bone marrow stem cells with L-cell conditioned media for six days as previously described (Kratz et al.).

BMDMs = assay: Uptake of fluorescently labelled nucleic acid scaffolds by BMDMs (flow cytometry); format: cell-based, mouse; settings: pulsed with 50 nM scaffold 30 min, chased 15 min
Excerpt: FIGS. 1A-1B. Uptake of various oligonucleotides by bone marrow-derived macrophages (BMDMs). FIG. 1A, Schematic of various fluorescently labelled nucleic acid structures used for uptake studies in BMDMs. Each nucleic acid scaffold is either a single stranded or double stranded 38 mer DNA (D) or RNA (R) sequence, or a DNA:RNA hybrid or complex. Each scaffold is labelled with an Alexa Fluor® 647N fluorophore on the 5′ end of one of the strands. From left to right, the constructions tested were dsDNA (SEQ ID NO: 40 and SEQ ID NO: 41 or SEQ ID NO: 42), ssDNA (SEQ ID NO: 41), dsRNA (SEQ ID NO: 43 and SEQ ID NO: 44), ssRNA (SEQ ID NO: 43), and ssDNA:ssRNA (SEQ ID NO: 45 and SEQ ID NO: 46). FIG. 1B, BMDMs were pulsed with 100 nM of each nucleic acid scaffold for 30 min. The cells were then washed and chased for 15 min after which were subjected to flow cytometry based quantification. Mean fluorescence intensity (A/IFI) of nucleic acid scaffold uptake by BMDMs is shown.
Various fluorescently labelled scaffolds were tested in a variety of nucleic acid configurations (Table 1).
BMDMs were pulsed with 50 nM of each nucleic acid scaffold for 30 min. The cells were then washed and chased for 15 min after which they were subjected to flow cytometry quantification. A nucleic acid scaffold was then selected for subsequent experiments. […]

M2 BMDMs = assay: Uptake by M2 BMDMs in vitro (wt and scavenger receptor knockouts; nucleic acid variants); format: cell-based, mouse; settings: 30 min
Experimental: FIG. 48. A lysosome-targeted DNA nanodevice (E64-DNA) promotes antigen cross-presentation by TAMs. E64-DNA uptake by M2 BMDMs from wt, Scarb1−/−, Msr1−/−, or Cd36−/− mice. Uptake was quantified by flow cytometry; n=3/group. Statistical significance was calculated via two-tailed Student's t-test (p<0.05 values are provided); error bars indicate the mean of independent experiments±s.e.m. ns; not significant. TAMs were isolated from E0771 tumors. All measurements (n) are biological replicates.
FIGS. 49A-49B. DNA nanodevice uptake and stability. FIG. 49A, Schematic of various fluorescently labeled nucleic acid structures used for uptake studies in BMDMs. Each nucleic acid scaffold is either a single stranded or double stranded 38 mer DNA or RNA sequence. Each scaffold is labelled with an Alexa Fluor® 647 fluorophore on the 5′ end of one of the strands. FIG. 49B, Uptake of various types of nucleic acids by M2 BMDMs. n=3/group. Statistical significance was calculated via two-tailed Student's t-test (p<0.05 values are provided); error bars indicate the mean of independent experiments±s.e.m. ns; not significant. […]
E64-DNA uptake by M2 BMDMs in vitro—E64-DNA (100 nM) or other types of nucleic acids (D1-D2, D2, R1-R2, R2) was incubated with 0.2 million M2-activated BMDMs from wt, Scarb1−/−, Msr1−/−, or Cd36−/− mice for 30 min, washed with PBS, and uptake was assessed by flow cytometry.

alveolar macrophages = assay: In vivo labeling by intratracheal dsDNA; set-up: species or system mouse; settings: 100 μg dsDNA intratracheally
Experimental: (§1) FIGS. 2A-2B. dsDNA preferentially targets macrophages in other tissues. FIG. 2A, Fluorescently labeled dsDNA (100 μg) was injected intratracheally into mice and cells were harvested 2 hr post injection with a bronchoalveolar lavage. Uptake by alveolar macrophages (AM, CD45^+CD11b^−CD11c^+) and alveolar neutrophils (AN, CD45^+CD11b^+Ly6G^+) was quantified by flow cytometry. FIG. 2B, Fluorescently labeled dsDNA (100 μg) was injected intraperitoneally into mice and visceral adipose tissue was harvested 4 hr post injection. Adipose tissue was digested to obtain the stromal vascular fraction. dsDNA uptake by cells in the stromal vascular fraction was quantified by flow cytometry. ATM=adipose tissue macrophage (CD45^+CD11b^+F4/80^+).
(§2) BMDMs were pulsed with 50 nM of each nucleic acid scaffold for 30 min. The cells were then washed and chased for 15 min after which they were subjected to flow cytometry quantification. A nucleic acid scaffold was then selected for subsequent experiments. To test the efficiency of macrophage labeling in vivo, 25 μg of fluorophore labeled dsDNA was injected intravenously into a mouse model of triple-negative breast cancer (TNBC).

[3] = tested on: tumor associated macrophages; assay: In vivo macrophage labeling by i.v. fluorophore labeled dsDNA, TNBC model; settings: 25 μg dsDNA i.v., TNBC mouse model
Experimental: as §2

[4] = tested on: adipose tissue macrophages; assay: In vivo labeling by intraperitoneal dsDNA; set-up: species or system mouse; settings: 100 μg dsDNA intraperitoneally
Experimental: as §1, §2

Molecule	antigen cross-presentation by TAMs (TAMs / OT-1 CD8+ T cells)	DQ-OVA degradation by TAMs [1]	uptake of nucleic acid scaffold by BMDMs (BMDMs)	internalization of 38 nucleotide Alexa 647 scaffolds by M2 BMDMs (M2 BMDMs)	also measured
O=P1(N(CCCl)CCCl)NCCCO1 (stereo not drawn) [CTX, cyclophosphamide]					sustained tumor regression in the E0771 model (E0771 tumors): could not be replicated
CC(C)C[C@H](NC(=O)[C@@H]1O[C@H]1C(=O)O)C(=O)NCCCCNC(=N)N [E64, reference compound]	did not affect cross-presentation	could not be reproduced			tumor growth, free E64 high doses (tumor growth): limited impact on tumor growth
O=C1N[C@](c2ccc(N3CCOCC3)cc2)(c2ccsc2)CC(O)=C1Sc1ccccc1Cl [GNE, (R)-GNE-140]					Lactate dehydrogenase (LDH) activity in BMDMs [2]: decreased; intracellular lactate levels in BMDMs [2]: decreased
ssDNA: single stranded 38 mer DNA, SEQ ID NO: 41, Alexa 647 labelled (TATATATAGGATCTTGCTGTCTGGTGTGCAGTGTTGAT; DNA, 5' {Alexa647}, backbone and methylation of C not given here)			maximal uptake	required a ssDNA or dsDNA scaffold	
B1	did not affect cross-presentation	could not be reproduced	maximal uptake	required a ssDNA or dsDNA scaffold	labeling of alveolar macrophages preferentially over other cell types (alveolar macrophages): > 95%; labeling of tumor associated macrophages preferentially over any other cell type in the tumor microenvironment [3]: > 90%; labeling of adipose tissue macrophages preferentially over other cell types [4]: 70%
